{"source": "patent US20100146645A1", "about": "“TRANSGENIC ANIMAL MODEL FOR MODELLING PA[…], A METHOD FOR IDENTIFYING COMPOUNDS FOR TREATMENT OF DISEASES OR DISORDERS CAUSED BY PA[…] AND A METHOD FOR USING WFS1 PROTEIN AS A TARGET FOR I[…] COMPOUNDS AGAINST PA[…]” (priority 2006, published 2010)", "key": {"Wfs1 −/− mice [1]": {"tested_on": "Wfs1 −/− mice", "test": "Elevated plus-maze, effect of diazepam on anxiety behaviour and vocalization", "format": "in vivo, mouse"}, "Wfs1 −/− mice [2]": {"tested_on": "Wfs1 −/− mice", "test": "Light-dark cage test, vocalization", "format": "in vivo, mouse", "conditions": "Wfs1 −/− mice (30% vocalized), anxiolytic dose of diazepam injected", "experimental": "The cage was divided into two: a ⅔ part was lighted and a ⅓ part with darkened cover. The light part was divided into three equal parts, so that the most aversive part was the third part, which is located most distantly from the dark part. Anxious animals preferred to remain mostly in the dark part and avoided the aversive light partition. The experiment was performed one week after the elevated plus-maze experiment and no preliminary isolation of the animals was applied. Lighting level in the light part of the cage was 270 lux.\nNamely, the female Wfs1 −/− mice performed 1.5-2 times less entrances to the various parts of the light partition, if compared to the wild type mice (FIG. 7) and the duration of their stay in the light part was twice shorter (FIG. 8). […] In the test cage 30% of the Wfs1 −/− mice vocalized."}}, "data": [{"compound": "CN1C(=O)CN=C(c2ccccc2)c2cc(Cl)ccc21", "note": "[diazepam]", "values": [{"measurement": "Suppressed exploratory activity and risk behaviour", "setting": "Wfs1 −/− mice [1]; Wfs1-deficient mice, diazepam 1 mg/kg", "value": "significantly reduced"}, {"measurement": "Stress-induced vocalization", "setting": "Wfs1 −/− mice [1]; Wfs1 −/− mice, diazepam 0.5 mg/kg", "value": "not effective"}, {"measurement": "Stress-induced vocalization", "setting": "Wfs1 −/− mice [1]; Wfs1 −/− mice, diazepam 1 mg/kg", "value": "removed"}, {"measurement": "Vocalization (share of vocalizing mice)", "setting": "Wfs1 −/− mice [1]; Wfs1 −/− mice, diazepam group, physiological saline group 24%", "value": 0, "unit": "%"}, {"measurement": "Time spent on the open arms of the cage", "setting": "Wfs1 −/− mice [1]; female Wfs1 −/− homozygotes, diazepam 1 mg/kg vs physiological saline, FIG. 4", "value": "increased"}, {"measurement": "Number of downwards examinations (head dippings) from the open arms", "setting": "Wfs1 −/− mice [1]; female Wfs1 −/− homozygotes, diazepam 1 mg/kg vs physiological saline, FIG. 5", "value": "increased"}, {"measurement": "Risk avoidance behaviour", "setting": "Wfs1 −/− mice [1]; female Wfs1 −/− homozygotes, diazepam 1 mg/kg vs physiological saline, FIG. 6", "value": "significantly decreased"}, {"measurement": "Vocalization in the test cage", "setting": "Wfs1 −/− mice [2]", "value": "completely removed"}]}]}
